# In PMC9871744 (Cellular and Molecular Gastroenterology and Hepatology, 2022):
# Where “and” joins values, the source holds several entries; their conditions need not be identical. Equal entries are not always repeated.
# Assays:
# human fungiform TBC = experiment: Ca2+ signaling in human fungiform TBC; format: cell-based
# mouse fungiform TBC = experiment: Ca2+ signaling in mouse fungiform TBC; format: cell-based; settings: LA at 20 μmol/L
# [1] = system: chorda tympani (CT) nerve; experiment: Chorda tympani; format: in vivo; settings: lingual application in mice; 1, 2, and 4 mmol/L; normalized to NH4Cl 100 mmol/L
# C57Bl/6 male mice [2] = experiment: Lingual application: pancreato-bile secretion and release of gut peptides; format: in vivo; settings: tongue application 100 μmol/L; at 30 and 60 minutes
# C57Bl/6 male mice [3] = experiment: Two-bottle preference and licking tests; format: in vivo; settings: 75 μmol/L in 0.3% xanthan gum, 12 hours
# C57BL/6J male mice = experiment: Diet-induced obesity; format: in vivo
# [4] = target: T1, human estrogen receptor alpha (hERα) (Homo sapiens, UniProt P03372); experiment: Estrogen receptor transcriptional activation and inhibition assays; format: cell-based
# T1 sequence (P03372 1-595): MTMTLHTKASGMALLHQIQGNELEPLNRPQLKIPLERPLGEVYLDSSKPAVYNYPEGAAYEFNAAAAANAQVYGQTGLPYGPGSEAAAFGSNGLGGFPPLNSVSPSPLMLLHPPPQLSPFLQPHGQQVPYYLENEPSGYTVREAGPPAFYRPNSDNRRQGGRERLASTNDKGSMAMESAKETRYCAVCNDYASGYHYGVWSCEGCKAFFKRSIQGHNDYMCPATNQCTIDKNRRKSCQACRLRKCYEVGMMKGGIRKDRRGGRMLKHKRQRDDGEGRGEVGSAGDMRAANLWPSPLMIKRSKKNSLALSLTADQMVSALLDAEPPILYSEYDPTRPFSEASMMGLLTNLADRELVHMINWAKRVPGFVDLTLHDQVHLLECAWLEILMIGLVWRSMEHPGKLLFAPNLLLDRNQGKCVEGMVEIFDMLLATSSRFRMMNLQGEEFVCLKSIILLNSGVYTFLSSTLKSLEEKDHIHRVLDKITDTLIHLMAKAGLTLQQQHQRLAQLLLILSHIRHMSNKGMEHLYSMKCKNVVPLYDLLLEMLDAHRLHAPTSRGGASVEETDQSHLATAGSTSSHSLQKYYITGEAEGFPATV
# [5] = system: human androgen receptor (hAR); experiment: Androgen receptor transcriptional activation and inhibition assays; format: cell-based
# female Wistar rats = experiment: Toxicity / median lethal dose test, OECD guidelines 425; format: in vivo
# [6] = Pharmacokinetics and detection in blood by LC-MS; format: in vivo, mice; settings: mice
# HepG2 cells [7] = experiment: Micronucleus analysis
# Cytotoxicity evaluation = settings: human, Cytotoxicity (%)
# HepG2 cells [8] = experiment: Cytotoxicity evaluation
# [9] = system: S typhimurium tester strains TA98, TA100, TA1535, and TA1537 and E coli tester strain WP2uvrA(pKM101); settings: all doses with and without S9
# [10] = rats, single oral 2000 mg/kg, means ± SEM (n = 5)
# [11] = short treatment in the absence of S9 mix, 2.5 mmol/L
# [12] = short treatment in the absence of S9 mix, 5 mmol/L
# [13] = short treatment in the absence of S9 mix, 10 mmol/L
# [14] = short treatment in the presence of S9 mix, 2.5 mmol/L
# [15] = short treatment in the presence of S9 mix, 5 mmol/L
# [16] = short treatment in the presence of S9 mix, 10 mmol/L
# [17] = extended treatment in the absence of S9 mix
# [18] = short treatment in the absence of S9 mix
# [19] = short treatment in the presence of S9 mix
# [20] = extended treatment in the absence of S9 mix, 2.5 mmol/L
# [21] = extended treatment in the absence of S9 mix, 5 mmol/L
# [22] = extended treatment in the absence of S9 mix, 10 mmol/L
# [23] = extended treatment in the absence of S9 mix, 0.0025 μg/mL (Table 13)
# [24] = extended treatment in the absence of S9 mix, 0.025 μg/mL (Table 14)
# [25] = extended treatment in the absence of S9 mix, 0.0025 μg/mL (Table 5)
# [26] = extended treatment in the absence of S9 mix, 0.025 μg/mL (Table 8)
# [27] = short treatment in the presence of S9 mix, 5 μg/mL (Table 11)
# [28] = short treatment in the presence of S9 mix, 10 μg/mL (Table 12)
# [29] = short treatment in the presence of S9 mix, 5 μg/mL (Table 4)
# [30] = short treatment in the presence of S9 mix, 10 μg/mL (Table 7)
structure (smiles),measurement,setting,value
"CCCCC/C=C\C/C=C\CCCCCCCC(=O)OCC1(C)COC1 [NKS-5, (9Z,12Z)-(3-methyloxetan-3-yl)methyl octadeca-9,12-dienoate]",Ca2+ signaling compared with a dietary long-chain fatty acid,human fungiform TBC,higher
same,"increase in intracellular free Ca2+ concentrations, [Ca2+]i","human fungiform TBC; NKS-3 50 μmol/L, NKS-5 25 μmol/L",induced an increase
same,Ca2+ signaling compared with a dietary long-chain fatty acid,mouse fungiform TBC,higher
same,"CT nerve responses compared with dietary LCFAs (LA, OA)",[1],higher
same,release of cholecystokinin (CCK) into blood,C57Bl/6 male mice [2],more efficient than NKS-3 and LA
same,release of peptide YY (PYY) into blood,C57Bl/6 male mice [2],more potent than NKS-3 and LA
same,preference in 2-bottle paradigm versus control solution,C57Bl/6 male mice [3],significant preference
same,"CD36 (reduced) and GPR120 (high) protein expression in TBC, Western blots","C57BL/6J male mice; HFD animals, FTA intake 16 weeks",reversed this trend
same,LA-induced decreases in [Ca2+]i in TBC from obese mice,C57BL/6J male mice; HFD mice given FTA 16 weeks,reversed
same,size of hepatocytes,C57BL/6J male mice; HFD-fed mice,decreased
same,fecal microbiota: bacterial family increased,"C57BL/6J male mice; HFD-fed mice, 16S rRNA sequencing, week 26",Bacteroidaceae
same,"adipose tissue mRNA encoding leptin, CD36, TNF-α, and IL6","C57BL/6J male mice; HFD-fed mice, epididymal adipose tissue",down-regulated
same,crown-like structures of adipocytes,"C57BL/6J male mice; obese animals, histology",decreased
same,circulating TNF-α levels,C57BL/6J male mice; obese mice,failed to decrease significantly
same,"release of GLP-1, CCK-1, and PYY into blood circulation","C57BL/6J male mice; obese mice, end of week 26",induced the release
same,estrogenic or antiestrogenic potential (conclusion),[4],did not exert an estrogenic or antiestrogenic potential
same,androgenic or antiandrogenic property (conclusion),[5],did not possess androgenic or antiandrogenic property
same,weight of kidneys,female Wistar rats; [10],1.84 ± 0.112 g
same,weight of liver,female Wistar rats; [10],8.03 ± 0.136 g
same,weight of spleen,female Wistar rats; [10],0.90 ± 0.062 g
same,toxic effect on liver enzymes and blood lipid parameters,"female Wistar rats; rats, single oral limit dose 2000 mg/kg body weight, 2 weeks",No toxic effect
same,"evidence of toxicity, preliminary study","female Wistar rats; single animal, oral dosages of 5000 mg/kg body weight",no evidence of toxicity
same,detection in blood circulation after intravenous injections (LC-MS),[6],below the level of detection
same,MNBN cells frequency (%),HepG2 cells [7]; [11],1.1% and 0.8%
same,Mean frequency (%) of MNBN cells,HepG2 cells [7]; [11],0.95%
same,MNBN cells frequency (%),HepG2 cells [7]; [12],1.1% and 1.3%
same,Mean frequency (%) of MNBN cells,HepG2 cells [7]; [12],1.20%
same,MNBN cells frequency (%),HepG2 cells [7]; [13],0.9% and 0.8%
same,Mean frequency (%) of MNBN cells,HepG2 cells [7]; [13],0.85%
same,MNBN cells frequency (%),HepG2 cells [7]; [14],1.0% and 1.1%
same,Mean frequency (%) of MNBN cells,HepG2 cells [7]; [14],1.05%
same,MNBN cells frequency (%),HepG2 cells [7]; [15],0.9%
same,Mean frequency (%) of MNBN cells,HepG2 cells [7]; [15],0.90%
same,MNBN cells frequency (%),HepG2 cells [7]; [16],0.9% and 0.8%
same,Mean frequency (%) of MNBN cells,HepG2 cells [7]; [16],0.85%
same,cytotoxicity at 2.5 mmol/L,Cytotoxicity evaluation; [17],5.29%
same,cytotoxicity at 5 mmol/L,Cytotoxicity evaluation; [17],19.6%
same,cytotoxicity at 10 mmol/L,Cytotoxicity evaluation; [17],14.7%
same,cytotoxicity at 2.5 mmol/L,Cytotoxicity evaluation; [18],-5.78%
same,cytotoxicity at 5 mmol/L,Cytotoxicity evaluation; [18],-1.42%
same,cytotoxicity at 10 mmol/L,Cytotoxicity evaluation; [18],1.32%
same,cytotoxicity at 2.5 mmol/L,Cytotoxicity evaluation; [19],-0.59%
same,cytotoxicity at 5 mmol/L,Cytotoxicity evaluation; [19],-6.22%
same,cytotoxicity at 10 mmol/L,Cytotoxicity evaluation; [19],1.64%
same,CBPI,HepG2 cells [8]; [20],2.02 and 1.97
same,Mean CBPI,HepG2 cells [8]; [20],1.99
same,CBPI,HepG2 cells [8]; [21],1.83 and 1.85
same,Mean CBPI,HepG2 cells [8]; [21],1.84
same,CBPI,HepG2 cells [8]; [22],1.95 and 1.84
same,Mean CBPI,HepG2 cells [8]; [22],1.89
same,CBPI,HepG2 cells [8]; [11],1.99 and 1.98
same,Mean CBPI,HepG2 cells [8]; [11],1.98
same,CBPI,HepG2 cells [8]; [12],1.95 and 1.94
same,Mean CBPI,HepG2 cells [8]; [12],1.94
same,CBPI,HepG2 cells [8]; [13],1.91 and 1.93
same,Mean CBPI,HepG2 cells [8]; [13],1.92
same,CBPI,HepG2 cells [8]; [14],2.07
same,Mean CBPI,HepG2 cells [8]; [14],2.07
same,CBPI,HepG2 cells [8]; [15],2.14 and 2.12
same,Mean CBPI,HepG2 cells [8]; [15],2.13
same,CBPI,HepG2 cells [8]; [16],2.06 and 2.04
same,Mean CBPI,HepG2 cells [8]; [16],2.05
same,toxicity in the tester strains,[9],No toxicity
"CC[C@]1(O)C[C@@H]2CN(CCc3c([nH]c4ccccc34)[C@@](C(=O)OC)(c3cc4c(cc3OC)N(C)[C@H]3[C@@](O)(C(=O)OC)[C@H](OC(C)=O)[C@]5(CC)C=CCN6CC[C@]43[C@@H]65)C2)C1 [Vinblastine, reference compound]",MNBN cells frequency (%),HepG2 cells [7]; [23],11.5% and 12.3%
same,Mean frequency (%) of MNBN cells,HepG2 cells [7]; [23],11.9%
same,MNBN cells frequency (%),HepG2 cells [7]; [24],4.6% and 4.1%
same,Mean frequency (%) of MNBN cells,HepG2 cells [7]; [24],4.35%
same,cytotoxicity at 0.0025 μg/mL,Cytotoxicity evaluation; [25],27.1%
same,cytotoxicity at 0.025 μg/mL,Cytotoxicity evaluation; [26],9.29%
same,CBPI,HepG2 cells [8]; [25],1.67
same,Mean CBPI,HepG2 cells [8]; [25],1.67
same,CBPI,HepG2 cells [8]; [26],1.97 and 1.92
same,Mean CBPI,HepG2 cells [8]; [26],1.95
"CCCCC/C=C\C/C=C\CCCCCCCC(=O)O [LA, linoleic acid, reference compound]",release of cholecystokinin (CCK) into blood,C57Bl/6 male mice [2],better inducer than NKS-3
"O=P1(N(CCCl)CCCl)NCCCO1 (stereo not drawn) [Cyclophosphamide, reference compound]",MNBN cells frequency (%),HepG2 cells [7]; [27],2.3% and 3.1%
same,Mean frequency (%) of MNBN cells,HepG2 cells [7]; [27],2.70%
same,MNBN cells frequency (%),HepG2 cells [7]; [28],8.2% and 7.9%
same,Mean frequency (%) of MNBN cells,HepG2 cells [7]; [28],8.05%
same,cytotoxicity at 5 μg/mL,Cytotoxicity evaluation; [29],13%
same,cytotoxicity at 10 μg/mL,Cytotoxicity evaluation; [30],5.3%
same,CBPI,HepG2 cells [8]; [29],1.73 and 1.66
same,Mean CBPI,HepG2 cells [8]; [29],1.70
same,CBPI,HepG2 cells [8]; [30],1.93 and 2.09
same,Mean CBPI,HepG2 cells [8]; [30],2.01
